Reference: patent US7759345B2, “Antitumoral derivatives of ET-743” (priority 2001, dated 2010)

How the values were obtained:
[1] = system: HT-29; experiment: Inhibition of cells growth by colorimetric assay (SRB), HT-29; assay type: cell-based; conditions: for GI50 / LC50 (concentration for 50% cell killing): Homo sapiens, HT-29, 48 h; for GI50 / HT-29 TGI: SRB assay, 48 hours exposure; for GI50: read-out: HT-29 GI50; for LC50 (concentration for 50% cell killing): read-out: HT-29 LC50, SRB assay, 48 hours exposure
How it was run: (§1)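 5×10^3 cells/well; 18 h attach; compound 10–10^−8 μg/ml in DMSO/EtOH/PBS (0.5:0.5:99), 48 h, 37 °C, 5% CO2; cold 50% TCA fix 60 min 4 °C; 0.4% SRB 10 min RT; Tris solubilization; OD 490 nm; triplicates.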

[2] = system: K-562; experiment: Inhibition of cells growth by colorimetric assay (SRB), K-562; assay type: cell-based; conditions: for GI50 / LC50 (50% cell killing): Homo sapiens, K562, 48 h; for GI50 / K-562 TGI: SRB assay, 48 hours exposure; for GI50: read-out: K-562 GI50; for LC50 (50% cell killing): read-out: K-562 LC50, SRB assay, 48 hours exposure
How it was run: as §1

[3] = system: LNCaP; experiment: Inhibition of cells growth by colorimetric assay (SRB), LNCaP; assay type: cell-based; conditions: for GI50 / CC50: Homo sapiens, LNCaP, 48 h; for GI50: read-out: LNCAP GI50, SRB assay, 48 hours exposure; for CC50: read-out: LNCAP LC50, SRB assay, 48 hours exposure; for LNCAP TGI: SRB assay, 48 hours exposure
How it was run: as §1

[4] = system: Kidney
Text: (§2) Toxicity was asssessed by the methods reported in Toxicology in Vitro, 15 (2001) 571-577, J. Luber Narod et al.: “Evaluation of the use of in vitro methodolodies as tools for screening new compounds for potential in vivo toxicity”.

[5] = system: IGROV-ET; experiment: Inhibition of cells growth by colorimetric assay (SRB), IGROV-ET; assay type: cell-based; conditions: for GI50 / CC50: Homo sapiens, 48 h; for GI50 / IGROV-ET TGI: SRB assay, 48 hours exposure; for GI50: read-out: IGROV-ET GI50; for CC50: read-out: IGROV-ET LC50, SRB assay, 48 hours exposure
How it was run: as §1

[6] = system: LoVo; experiment: Inhibition of cells growth by colorimetric assay (SRB), LoVo; assay type: cell-based; conditions: for GI50 / LC50 (concentration for 50% cell killing): Homo sapiens, LoVo, 48 h; for GI50 / LOVO TGI: SRB assay, 48 hours exposure; for GI50: read-out: LOVO GI50; for LC50 (concentration for 50% cell killing): read-out: LOVO LC50, SRB assay, 48 hours exposure
How it was run: as §1

[7] = system: A-549; experiment: Inhibition of cells growth by colorimetric assay (SRB), A-549; assay type: cell-based; conditions: for GI50 / LC50 (concentration for 50% cell killing): Homo sapiens, A549, 48 h; for GI50 / A-549 TGI: SRB assay, 48 hours exposure; for GI50: read-out: A-549 GI50; for LC50 (concentration for 50% cell killing): read-out: A-549 LC50, SRB assay, 48 hours exposure
How it was run: as §1

[8] = system: SK-OV-3; experiment: Inhibition of cells growth by colorimetric assay (SRB), SK-OV-3; assay type: cell-based; conditions: for GI50 / LC50: Homo sapiens, SK-OV-3, 48 h; for GI50 / SK-OV3 TGI: SRB assay, 48 hours exposure; for GI50: read-out: SK-OV3 GI50; for LC50: read-out: SK-OV3 LC50, SRB assay, 48 hours exposure
How it was run: as §1

[9] = system: Liver
Text: as §2

[10] = system: IGROV-1; experiment: Inhibition of cells growth by colorimetric assay (SRB), IGROV-1; assay type: cell-based; conditions: for GI50 / CC50: Homo sapiens, IGROV-1, 48 h; for GI50 / IGROV TGI: SRB assay, 48 hours exposure; for GI50: read-out: IGROV GI50; for CC50: read-out: IGROV LC50, SRB assay, 48 hours exposure
How it was run: as §1

[11] = system: LoVo-Dox; experiment: Inhibition of cells growth by colorimetric assay (SRB), LoVo-Dox; assay type: cell-based; conditions: for GI50 / CC50: Homo sapiens, 48 h; for GI50 / LOVO-DOX TGI: SRB assay, 48 hours exposure; for GI50: read-out: LOVO-DOX GI50; for CC50: read-out: LOVO-DOX LC50, SRB assay, 48 hours exposure
How it was run: as §1

[12] = system: Myelo
Text: as §2

[13] = system: HMEC1; experiment: Inhibition of cells growth by colorimetric assay (SRB), HMEC1; assay type: cell-based; conditions: for GI50 / LC50: Homo sapiens, HMEC-1, 48 h; for GI50 / HMEC-1 TGI: SRB assay, 48 hours exposure; for GI50: read-out: HMEC-1 GI50; for LC50: read-out: HMEC-1 LC50, SRB assay, 48 hours exposure
How it was run: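 Human cancer and endothelial lines are seeded at 5×10^3 cells per well and, after 18 h, treated for 48 h with compound dissolved in DMSO/EtOH/PBS (0.5:0.5:99) at 10 to 10^−8 μg/ml. Cell mass is quantified by SRB staining (OD 490 nm), and growth inhibition, total growth inhibition and cell kill are calculated from triplicate wells.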

[14] = system: Skeletal
Text: as §2

[15] = system: Heart
Text: as §2

[16] = system: SK-MEL-28; experiment: Inhibition of cells growth by colorimetric assay (SRB), SK-MEL-28; assay type: cell-based; conditions: for GI50 / CC50: Homo sapiens, SK-MEL-28, 48 h; for GI50 / MEL-28 TGI: SRB assay, 48 hours exposure; for GI50: read-out: MEL-28 GI50; for CC50: read-out: MEL-28 LC50, SRB assay, 48 hours exposure
How it was run: as §1

[17] = system: DU-145; experiment: Inhibition of cells growth by colorimetric assay (SRB), DU-145; assay type: cell-based; conditions: for GI50 / CC50: Homo sapiens, DU-145, 48 h; for GI50 / DU-145 TGI: SRB assay, 48 hours exposure; for GI50: read-out: DU-145 GI50; for CC50: read-out: DU-145 LC50, SRB assay, 48 hours exposure
How it was run: as §1

[18] = system: PANC-1; experiment: Inhibition of cells growth by colorimetric assay (SRB), PANC-1; assay type: cell-based; conditions: for GI50 / LC50 (concentration for 50% net cell kill): Homo sapiens, PANC-1, 48 h; for GI50 / PANC-1 TGI: SRB assay, 48 hours exposure; for GI50: read-out: PANC-1 GI50; for LC50 (concentration for 50% net cell kill): read-out: PANC-1 LC50, SRB assay, 48 hours exposure
How it was run: as §1

[19] = system: SK-BR-3; experiment: Inhibition of cells growth by colorimetric assay (SRB), SK-BR-3; assay type: cell-based; conditions: for GI50 / CC50: Homo sapiens, SK-BR-3, 48 h; for GI50 / SK-BR3 TGI: SRB assay, 48 hours exposure; for GI50: read-out: SK-BR3 GI50; for CC50: read-out: SK-BR3 LC50, SRB assay, 48 hours exposure
How it was run: as §1

**Q.** Which results are given for `COc1cc2c(cc1OC(=O)OC(C)(C)C)CCN[C@]21CS[C@@H]2c3c(OC(=O)[C@H](C)NC(=O)OC(C)(C)C)c(C)c4c(c3[C@H](COC1=O)N1C2[C@H]2c3c(cc(C)c(OC)c3O)C[C@@H]([C@@H]1O)N2C)OCO4` (stereo partly shown) [Compound 175]?
**A.** GI50 [1]: 4.15 nM; LC50 (concentration for 50% cell killing) [1]: 10100 nM; HT-29 TGI [1]: 1.54E-08; GI50 [2]: 0.293 nM; LC50 (50% cell killing) [2]: 0.775 nM; K-562 TGI [2]: 4.76E-10; GI50 [3]: 0.382 nM; CC50 [3]: 3.64 nM; LNCAP TGI [3]: 1.12E-09; Toxicity Data Kidney [4]: 2.84E-09; GI50 [5]: 3.97 nM; CC50 [5]: 1720 nM; IGROV-ET TGI [5]: 9.56E-09; GI50 [6]: 2.3 nM; LC50 (concentration for 50% cell killing) [6]: 8.33 nM; LOVO TGI [6]: 4.38E-09; GI50 [7]: 2.25 nM; LC50 (concentration for 50% cell killing) [7]: 7.97 nM; A-549 TGI [7]: 4.24E-09; GI50 [8]: 3.56 nM; LC50 [8]: 10100 nM; SK-OV3 TGI [8]: 8.77E-09; Toxicity Data Liver [9]: 3.87E-09; GI50 [10]: 0.641 nM; CC50 [10]: 8.13 nM; IGROV TGI [10]: 2.37E-09; GI50 [11]: 43.3 nM; CC50 [11]: 10100 nM; LOVO-DOX TGI [11]: 1.55E-07; Toxicity Data Myelo [12]: 1.59E-08; GI50 [13]: 3.54 nM; LC50 [13]: 10100 nM; HMEC-1 TGI [13]: 1.29E-08; Toxicity Data Skeletal [14]: 2.12E-07; Toxicity Data Heart [15]: 2.82E-09; GI50 [16]: 3.28 nM; CC50 [16]: 25.2 nM; MEL-28 TGI [16]: 6.63E-09; GI50 [17]: 3.67 nM; CC50 [17]: 10100 nM; DU-145 TGI [17]: 9.20E-09; GI50 [18]: 4.38 nM; LC50 (concentration for 50% net cell kill) [18]: 10100 nM; PANC-1 TGI [18]: 1.33E-08; GI50 [19]: 1.31 nM; CC50 [19]: 13.2 nM; SK-BR3 TGI [19]: 3.78E-09

**Q.** Which results are given for `C=COC(=O)Oc1c(C)c2c(c3c1[C@H]1SC[C@]4(NCCc5cc(OC(=O)OC(C)(C)C)c(OC)cc54)C(=O)OC[C@@H]3N3C1[C@H]1c4c(cc(C)c(OC)c4O)C[C@@H]([C@@H]3O)N1C)OCO2` (stereo partly shown) [Compound 176]?
**A.** GI50 [1]: 3.83 nM; LC50 (concentration for 50% cell killing) [1]: 11200 nM; HT-29 TGI [1]: 7.96E-09; GI50 [2]: 0.737 nM; LC50 (50% cell killing) [2]: 6.89 nM; K-562 TGI [2]: 1.52E-09; GI50 [3]: 1.62 nM; CC50 [3]: 6.49 nM; LNCAP TGI [3]: 3.25E-09; Toxicity Data Kidney [4]: 2.80E-09; GI50 [5]: 4.88 nM; CC50 [5]: 3450 nM; IGROV-ET TGI [5]: 3.38E-08; GI50 [6]: 11.1 nM; LC50 (concentration for 50% cell killing) [6]: 112 nM; LOVO TGI [6]: 5.12E-08; GI50 [7]: 2.75 nM; LC50 (concentration for 50% cell killing) [7]: 11.2 nM; A-549 TGI [7]: 6.01E-09; GI50 [8]: 3.26 nM; LC50 [8]: 11 nM; SK-OV3 TGI [8]: 8.07E-09; Toxicity Data Liver [9]: 2.95E-08; GI50 [10]: 1.74 nM; CC50 [10]: 10.7 nM; IGROV TGI [10]: 4.30E-09; GI50 [11]: 47.3 nM; CC50 [11]: 11200 nM; LOVO-DOX TGI [11]: 1.15E-06; Toxicity Data Myelo [12]: 1.42E-08; GI50 [13]: 3.46 nM; LC50 [13]: 11200 nM; HMEC-1 TGI [13]: 1.48E-07; Toxicity Data Skeletal [14]: 2.41E-08; Toxicity Data Heart [15]: 1.98E-08; GI50 [16]: 25.8 nM; CC50 [16]: 95.6 nM; MEL-28 TGI [16]: 4.97E-08; GI50 [17]: 5.24 nM; CC50 [17]: 8360 nM; DU-145 TGI [17]: 1.10E-08; GI50 [18]: 5.31 nM; LC50 (concentration for 50% net cell kill) [18]: 3200 nM; PANC-1 TGI [18]: 1.97E-08; GI50 [19]: 2.7 nM; CC50 [19]: 40.6 nM; SK-BR3 TGI [19]: 7.73E-09
